# In US8815875B2 (Merck Sharp & Dohme Corp., priority 2008, dated 2014):
# Biological target: FABP4 (Homo sapiens, UniProt P15090)
# Assay: TdF (Temperature Dependence Fluorescence) assay, thermal shift, FABP4
# Type: binding
# Summary of the method: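 Binding measured as ΔTm versus protein alone; binding constants derived by nonlinear fitting with ΔHL set to −7 kcal/mol and ΔCpL to zero.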
# FABP4, sequence (P15090 whole entry, species assumed): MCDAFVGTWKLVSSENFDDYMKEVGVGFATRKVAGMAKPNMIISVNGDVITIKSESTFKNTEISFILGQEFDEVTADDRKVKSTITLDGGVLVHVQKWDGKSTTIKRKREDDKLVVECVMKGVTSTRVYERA
FABP4 TdF Kd,Kd [nM],Structure (SMILES)
B (0.5 ≦ B < 0.001 μM),–,Cn1nccc1NC(=O)C1(OCc2cc(=O)n3nc(-c4ccccc4)nc3[nH]2)CCCCC1 [48-32]
B (0.5 ≦ B < 0.001 μM),–,COc1ccccc1C1(CNC(=O)c2c(Cl)cccc2OCc2cc(=O)n3nc(-c4ccccc4)nc3[nH]2)CC1 [47-48]
–,> 500,CN(Cc1cc(=O)n2nc(-c3ccccc3)nc2[nH]1)c1cccnc1Br [1-51]
B (0.5 ≦ B < 0.001 μM),–,CN(CCc1ccccc1)C(=O)C1(OCc2cc(=O)n3nc(-c4ccccc4)nc3[nH]2)CCCCC1 [48-37]
B (0.5 ≦ B < 0.001 μM),–,"O=C(Nc1cc(C2CC2)n[nH]1)c1c(Cl)cccc1OCc1cc(=O)n2nc(-c3ccccc3)nc2[nH]1 [47-32, 2-chloro-N-(3-cyclopropyl-1H-pyrazol-5-yl)-6-((7-oxo-2-phenyl-4,7-dihydro-[1,2,4]triazolo[1,5-a]pyrimidin-5-yl)methoxy)benzamide]"
B (0.5 ≦ B < 0.001 μM),–,O=C(Nc1c(Cl)cccc1OCc1cc(=O)n2nc(-c3ccccc3)nc2[nH]1)C1CCCC1 [49-4]
–,> 500,Cc1c(Cl)cccc1OCc1cc(=O)n2nc(-c3cnccn3)nc2[nH]1 [25-5]
B (0.5 ≦ B < 0.001 μM),–,CC1CC(OCc2cc(=O)n3nc(-c4ccccc4)nc3[nH]2)CC(C)(C)C1 (centres unmarked) [1-99]
–,> 500,CN(CC1CC1)C(=O)c1c(Cl)cccc1OCc1cc(=O)n2nc(-c3ccccc3)nc2[nH]1 [47-46]
–,≤ 1,O=C(NC1(c2cccc(Cl)c2F)CC1)C1(OCc2cc(=O)n3nc(-c4ccccc4)nc3[nH]2)CCCCC1 [48-10]
B (0.5 ≦ B < 0.001 μM),–,O=C(Nc1c(Cl)cccc1OCc1cc(=O)n2nc(-c3ccccc3)nc2[nH]1)C1CCC1 [49-2]
–,> 500,COC(=O)C1(NCc2cc(=O)n3nc(-c4ccccc4)nc3[nH]2)CCc2ccc(Br)cc2C1 (centres unmarked) [1-155]
B (0.5 ≦ B < 0.001 μM),–,CCc1ccc(OCc2cc(=O)n3nc(-c4ccccc4)nc3[nH]2)cc1 [1-3]
B (0.5 ≦ B < 0.001 μM),–,"Cc1cc(NC(=O)c2c(Cl)cccc2OCc2cc(=O)n3nc(-c4ccccc4)nc3[nH]2)no1 [47-8, 2-chloro-N-(5-methylisoxazol-3-yl)-6-((7-oxo-2-phenyl-4,7-dihydro-[1,2,4]triazolo[1,5-a]pyrimidin-5-yl)methoxy)benzamide]"
–,> 500,O=c1cc(COc2cccnc2)[nH]c2nc(-c3ccccc3)nn12 [1-19]
B (0.5 ≦ B < 0.001 μM),–,O=C(NCCO)C1(OCc2cc(=O)n3nc(-c4ccccc4)nc3[nH]2)CCCCC1 [48-17]
B (0.5 ≦ B < 0.001 μM),–,"Cc1c(Cl)cccc1OC(C)c1cc(=O)n2nc(-c3ccccc3)nc2[nH]1 (single isomer, unassigned) [37-6]"
–,> 500,CCc1ccc(OCc2cc(=O)n3nc(C(=O)OC)nc3[nH]2)cc1 [8-7]
B (0.5 ≦ B < 0.001 μM),–,"O=C(NC1(CO)CCCC1)c1c(Cl)cccc1OCc1cc(=O)n2nc(-c3ccccc3)nc2[nH]1 [47-17, 2-chloro-N-(1-(hydroxymethyl)cyclopentyl)-6-((7-oxo-2-phenyl-4,7-dihydro-[1,2,4]triazolo[1,5-a]pyrimidin-5-yl)methoxy)benzamide]"

FABP4 TdF Kd,Kd [nM],Structure (SMILES)
–,> 500,O=c1cc(COc2ccc(OC(F)(F)F)cc2)[nH]c2nc(-c3ccccc3)nn12 [1-65]
B (0.5 ≦ B < 0.001 μM),–,COC[C@H]1CCCN1C(=O)c1c(Cl)cccc1OCc1cc(=O)n2nc(-c3ccccc3)nc2[nH]1 [47-10]
–,> 500,CN1CCC(OCc2cc(=O)n3nc(-c4ccccc4)nc3[nH]2)CC1 [1-45]
B (0.5 ≦ B < 0.001 μM),–,O=C(NCC1CCC1)c1ccccc1OCc1cc(=O)n2nc(-c3ccccc3)nc2[nH]1 [47-56]
–,> 500,CCc1ccc(OCc2[nH]c3nc(-c4ccccc4)nn3c(=O)c2Br)cc1 [2-2]
B (0.5 ≦ B < 0.001 μM),–,"O=C(NCC1(CO)CC1)c1c(Cl)cccc1OCc1cc(=O)n2nc(-c3ccccc3)nc2[nH]1 [47-18, 2-chloro-N-((1-(hydroxymethyl)cyclopropyl)methyl)-6-((7-oxo-2-phenyl-4,7-dihydro-[1,2,4]triazolo[1,5-a]pyrimidin-5-yl)methoxy)benzamide]"
B (0.5 ≦ B < 0.001 μM),–,Cc1ccc(OCc2cc(=O)n3nc(-c4ccccc4)nc3[nH]2)cc1C [1-63]
B (0.5 ≦ B < 0.001 μM),–,O=c1cc(COc2cccc3ncccc23)[nH]c2nc(-c3ccccc3)nn12 [1-80]
–,> 500,O=c1cc(CN2CCc3c(C4CC4)cccc32)[nH]c2nc(-c3ccccc3)nn12 [29-1]
B (0.5 ≦ B < 0.001 μM),–,CCc1ccc(SCc2cc(=O)n3nc(-c4ccccc4)nc3[nH]2)cc1 [12-1]
B (0.5 ≦ B < 0.001 μM),–,CCCCc1cn(Cc2cc(=O)n3nc(-c4ccccc4)nc3[nH]2)c2cccc(Cl)c12 [1-143]
–,> 500,O=c1cc(COC2CCCCC2O)[nH]c2nc(-c3ccccc3)nn12 (centres unmarked) [1-135]
B (0.5 ≦ B < 0.001 μM),–,C=CCc1c(Cl)cccc1OCc1cc(=O)n2nc(-c3ccccc3)nc2[nH]1 [42-3]
–,> 500,O=c1cc(COc2cccc3cnccc23)[nH]c2nc(-c3ccccc3)nn12 [1-75]
B (0.5 ≦ B < 0.001 μM),–,Cc1c(Cl)cccc1OCc1cc(=O)n2nc(-c3ccsc3)nc2[nH]1 [25-4]
–,> 500,O=c1cc(COc2ccc(C(F)(F)F)cc2)[nH]c2nc(-c3ccccc3)nn12 [1-7]
–,> 500,O=c1cc(COc2cccc(C(F)(F)F)c2)[nH]c2nc(C(F)(F)F)nn12 [5-3]
–,> 500,Cc1cc(C(C)(C)C)ccc1OCc1cc(=O)n2nc(-c3ccccc3)nc2[nH]1 [1-74]
–,≤ 1,"COc1cccc(C2(CNC(=O)c3c(Cl)cccc3OCc3cc(=O)n4nc(-c5ccccc5)nc4[nH]3)CCC2)c1 [47-38, 2-chloro-N-((1-(3-methoxyphenyl)cyclobutyl)methyl)-6-((7-oxo-2-phenyl-4,7-dihydro-[1,2,4]triazolo[1,5-a]pyrimidin-5-yl)methoxy)benzamide]"
